The values below come from publication PMC6829886, “Inhibition of Non-Small Cell Lung Cancer Cells by Oxy210, an Oxysterol-Derivative that Antagonizes TGFβ and Hedgehog Signaling” (Cells, 2019).

For orientation: IC90 means the point of the concentration-response curve where the effect stands at 90%. As usually defined, the IC50 is the point on the concentration scale where inhibition reaches its midpoint. A word on the share remaining: it is the share of the starting amount still present when the sample was taken. In general, half-life refers to how long it takes for the measured level to halve.

Molecules are shown by their SMILES.

Data set [1] deals with TGFβ induced activity of SBE-luciferase reporter. The experiment in a line: SBE-luciferase (Smad response-element) reporter assay in NIH3T3-E1 cells. The class given is cell-based, mouse. Particulars: 48 hrs. For orientation: Reporter assays use an easily measured gene product as a stand-in for the process of interest.
Procedure: NIH3T3-E1 cells cultured in 24 well-plates at 90% confluence were transiently transfected with 0.1 μg of Smad response-element reporter (SBE-Luciferase) plasmid (Qiagen), or with 0.1 μg of Gli response-element reporter (pGL3b-8xGli-Luciferase) plasmid, and 10 ng of pSV40-Renilla-Luciferase plasmid (Promega, Madison, WI, USA) with or without co-transfection with 10ng of Gli1 overexpression vector, pSRα-Gli1 using a Lipofectamine LTX Plus transfection reagent, as previously described [23]. […] 6 hrs after transfection, cells were treated with test agents for 72 h. […] Twenty-four hours after transfection, cells were treated with test agents for 20 h. Then the firefly and Renilla luciferase activities were measured using a dual luciferase kit (Promega) and a GloMax-96 Microplate Luminometer (Promega) or a plate reader-SpectraMax iD3 (Molecular Devices, San Jose, CA, USA). The firefly luciferase activities were normalized to the Renilla luciferase activities.
In data set [2] the test system is A549 cells. Set-up: method as in PMID 15967103. To be noted: consistent with own observations; cited from earlier work.
Data set [3] has as its target T1, Human TGFBR2 (Homo sapiens, UniProt P37173).
T1 construct: Human TGFBR2 (amino acid 188-end); purchased Eurofins
T1 sequence (P37173 188-567 limits assumed): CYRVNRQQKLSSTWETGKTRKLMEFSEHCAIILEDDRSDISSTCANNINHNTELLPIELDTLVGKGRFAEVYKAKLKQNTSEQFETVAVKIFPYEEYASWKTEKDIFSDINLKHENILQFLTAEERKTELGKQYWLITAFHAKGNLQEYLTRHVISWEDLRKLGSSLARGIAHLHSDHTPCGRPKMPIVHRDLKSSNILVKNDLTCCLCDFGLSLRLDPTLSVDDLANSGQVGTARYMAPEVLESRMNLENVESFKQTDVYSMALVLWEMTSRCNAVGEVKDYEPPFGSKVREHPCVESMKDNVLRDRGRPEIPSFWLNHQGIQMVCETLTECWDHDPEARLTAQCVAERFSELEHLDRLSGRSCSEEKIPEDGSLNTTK
The data set is described as follows: TGFβ receptor II kinase inhibition assay (Eurofins). Format: biochemical. Particulars: vs. positive controls Cdk1/2 Inhibitor III and PKR Inhibitor. As for the experimental part: (§1) Effect of Oxy210 on inhibition of TGFβ receptors I and II kinase activity was assessed by Eurofins (Celle-L’Evescault, France). TGFBR1 (h): Human TGFBR1 (amino acid 200 to end) was incubated with 8 mM MOPS pH 7.0, 0.2 mM EDTA, 1 mM MnCl2, 2 mg/mL casein, 10 mM Magnesium acetate and […] (specific activity and concentration as required). The reaction was initiated by the addition of the Mg/ATP mix. After incubation for 40 min at room temperature, the reaction was stopped by the addition of phosphoric acid to a concentration of 0.5%. 10 μL of the reaction was then spotted onto a P30 filtermat and washed four times for 4 min in 0.425% phosphoric acid and once in methanol prior to drying and scintillation counting. TGFBR2 (h): Human TGFBR2 (amino acid 188-end) was incubated with 20 mM Tris/HCl pH 8.5, 0.2 mM EDTA, 0.33 mg/mL MBP, 10 mM Magnesium acetate and [9-33P-ATP] (specific activity and concentration as required). The reaction was initiated by the addition of the Mg/ATP mix. After incubation for 120 min at room temperature, the reaction was stopped by the addition of phosphoric acid to a concentration of 0.5%. […]
(§2) Figure 11 Inhibition of TGFβ-induced Smad2/3 phosphorylation and transcriptional activity. […] Luciferase activity was measured and normalized to the Renilla luciferase activity. […]

Data set [4] relates to TGFβ signaling in NIH3T3-E1 cells. The data set is described as follows: TGFβ target gene expression (Q-RT-PCR) in NIH3T3 cells. Format: cell-based, mouse. To be noted: for expression of CTGF induced by TGFβ: NIH3T3 cells, TGFβ 20 ng/mL, 48 h (Figure 4e); for TGFβ inhibitory properties: statement in Discussion. As for the experimental part: Total RNA was extracted with the RNeasy Plus Mini Kit from Qiagen (Hilden, Germany) according to the manufacturer’s instructions. One microgram of RNA was reverse-transcribed using an iScript Reverse Transcription Supermix from Bio-Rad Laboratories (Hercules, CA, USA) to make single-stranded cDNA. The cDNAs were then mixed with Qi SYBR Green Supermix (Bio-Rad) for quantitative RT-PCR assay using a Bio-Rad I-cycler IQ quantitative thermocycler. All PCR samples were prepared in triplicate wells in a 96-well plate. After 40 cycles of PCR, melt curves were examined in order to ensure primer specificity. Fold changes in gene expression were calculated using the ΔΔCt method. Primers used for mouse were as follows: Oaz1 (5′-CCACTGCTTCGCCAGAGAG-3′) and (5′-CCCGGACCCAGGTTACTA-3′), Gli1 (5′- […]-3′ and 5′- GCT GATCCAGCCTAAGGTTCTC-3′), Ptch1 (5′-CCATCGGCGACAAGAACC-3′ and 5′-[…]-3′), Thbs1 (5′-[…]-3′ and 5′-CGGGGATCAGGTTGGCATT-3′), Cryab (5′-[…]-3′ and 5′-[…]-3′), Egr2 (5′-[…]-3′ and 5′-[…]-3′), CTGF (5′-GGGCCTCTTCTGCGATTTC-3′ and 5′-[…]-3′).
Figure 4 Inhibition of ligand-induced Hedgehog and TGFβ signaling in mouse fibroblast cells. NIH3T3 cells were pretreated for 2 h with Oxy210 or various inhibitors as indicated in DMEM containing 5% FBS. Next, cells were treated with CAPAN-1 conditioned medium (CM) in the absence or presence of oxysterols or inhibitors. After 72 h, RNA was extracted and analyzed by Q-RT-PCR for the expression of Hh target genes Gli1 and Ptch1 and normalized to Oaz1 expression (a,b). (c,e) NIH3T3 cells were treated in DMEM containing 0.1% BCS overnight and then pretreated for 2 h with the inhibitors as indicated in DMEM containing 0.1%BCS. The cells were then treated with TGFβ (20ng/mL) in the absence or presence of the compounds. After 48 h, RNA was extracted and analyzed by Q-RT-PCR for the expression of TGFβ target genes as indicated and normalized to Oaz1 expression. (d) NIH3T3 cells cultured in 24 well-plates were transfected with a Smad response element reporter (SBE-Luciferase) plasmid and a pTK-Renilla-Luciferase plasmid. 6 hrs after transfection, cells were treated with the test agents as indicated for 48 hrs. Luciferase activity was measured and normalized to the Renilla luciferase activity. Data from a representative experiment are reported as the mean of triplicate determinations ± SD (** p < 0.01 vs. CM (a,b) or TGFβ (c,d and e) treated cells; ## p < 0.01 vs. control).

In data set [5] the target is T2, Human TGFBR1 (Homo sapiens, UniProt P36897).
T2 construct: Human TGFBR1 (amino acid 200 to end); purchased Eurofins
T2 sequence (P36897 200-503 limits assumed): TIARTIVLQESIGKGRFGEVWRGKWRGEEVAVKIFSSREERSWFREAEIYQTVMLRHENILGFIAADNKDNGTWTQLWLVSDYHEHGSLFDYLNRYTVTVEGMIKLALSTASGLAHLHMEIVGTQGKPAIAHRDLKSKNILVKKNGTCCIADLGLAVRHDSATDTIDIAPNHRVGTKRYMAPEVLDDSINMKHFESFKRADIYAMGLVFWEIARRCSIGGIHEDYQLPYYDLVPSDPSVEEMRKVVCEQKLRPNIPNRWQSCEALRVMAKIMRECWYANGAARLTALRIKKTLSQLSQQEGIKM
The data set is described as follows: TGFβ receptor I kinase inhibition assay (Eurofins). Format: biochemical. To be noted: vs. positive controls Cdk1/2 Inhibitor III and PKR Inhibitor. As for the experimental part:
as §1, §2

In data set [6] the test system is A549 cells. The data set is described as follows: Cell counting (proliferation) assay in A549 cells. The class given is cell-based, human. Particulars: A549 cells, CP alone. As for the experimental part:
A549 and H2030 cells cultured in RPMI 1640 containing 5% FBS in 12 well-plates at 20% confluence were treated with Oxy210 for 6 days and then trypsinized, spun down and resuspended in fresh medium. For the Carboplatin (CP) and Oxy210 co-treatment experiments, A549 cells cultured in RPMI 1640 containing 2% FBS in 12 well-plates at 20% confluence were treated with CP at different concentrations in the presence or absence of Oxy210 for 6 days. For the TGFβ-induced drug resistance assay, A549 cells cultured in RPMI 1640 containing 2% FBS in 12 well-plates at 10% confluence were pre-treated with TGFβ1 alone or together with Oxy210 for 3 days, and then treated with 20 μM CP for 4 days. An aliquot of cell suspension was applied to a hemocytometer and the cells were then counted under a light microscope.
Statistical analyses were performed using the StatView 5 program (SAS Institute, Cary, NC, USA). All p values were calculated using ANOVA and Fisher’s projected least significant difference (PLSD) significance test. A value of p < 0.05 was considered significant. The IC 50 dose-response curves shown in Figure 4b and Figure 7a–c were modeled using a five-parameter logistic model. This model allows for asymmetric curves and automatically estimates the mean maximum and minimum response. Based on this model, IC 50 values were estimated corresponding to the dose halfway between min and max response. Models of dose versus response and dose versus log response were also evaluated (see Supplementary Materials). The R square statistic was computed as a measure of model fit.
Figure 7 Inhibition of NSCLC cell proliferation by Oxy210. A549 (a), (c) and H2030 (b) cells were treated with the test agents as indicated in RPMI 1640 containing 5% FBS for 5 days and then were trypsinized and counted as described in Methods and Materials section. Data from a representative experiment are reported as the mean of triplicate determinations ± SD (* p < 0.05 vs. control; ** p < 0.01 vs. control).

Data set [7] in a line: Metabolic stability in mouse liver microsomes. Format: in vitro ADME. (Liver microsomes are vesicles of endoplasmic reticulum, rich in cytochrome P450 enzymes.)
The test system of data set [8] is Smo. Set-up: method as in PMID 24591126. Particulars: cited from earlier work.
The nature of data set [9]: Metabolic stability in human liver microsomes. Format: in vitro ADME.

Take `NC(=O)c1ccc(-c2nc(-c3ccc4c(c3)OCO4)c(-c3ccccn3)[nH]2)cc1` [SB431542, reference compound]: the “TGFβ induced activity of SBE-luciferase reporter” value in data set [1] is given as “significantly inhibited”. In [2], the “effect on proliferation of A549 cells” value is “does not lessen the proliferation of A549 cells”.
For `C[C@]12CC[C@H](O)C[C@@H]1CC[C@@H]1[C@@H]2CC[C@@]2(C)[C@H]1CC[C@@H]2[C@](C)(O)CCc1ccc(F)cc1` [Oxy186, reference compound], in data set [3], the “inhibitory activity on TβRII in functional kinase assay” value is “did not display significant inhibitory activity”. Also, in [4], the “expression of CTGF induced by TGFβ” value is given as “only Oxy210 robustly inhibited” and the TGFβ inhibitory properties entry is “devoid of TGFβ inhibitory properties”. In addition, the “inhibitory activity on TβRI in functional kinase assay” value in data set [5] is listed as “did not display significant inhibitory activity”.
As to `CS(=O)(=O)c1ccc(C(=O)Nc2ccc(Cl)c(-c3ccccn3)c2)c(Cl)c1` [GDC0449], the “expression of CTGF induced by TGFβ” value in [4] is “only Oxy210 robustly inhibited”.
On to `[NH2][Pt]1([NH2])[O]C(=O)C2(CCC2)C(=O)[O]1` [CP, Carboplatin, reference compound], for which the IC10 Estimate, dataset 4.1 - Fig 7c - CP in data set [6] (original scale Y) was 0.66 µM. The IC90 in data set [6] (original scale Y, read-out: IC90 Estimate, dataset 4.1 - Fig 7c - CP) was 40.7 µM. Moreover, the IC50 in data set [6] (± SE, read-out: IC50 of CP) was 6.72 ± 0.72 µM.
In the case of `CC(C)CC[C@@H](O)[C@](C)(O)[C@H]1CC[C@H]2[C@@H]3CC=C4C[C@@H](O)CC[C@]4(C)[C@H]3CC[C@]12C` [Oxy16, (2R,3R)-2-((3S,8S,9S,10R,13S,14S,17S)-3-hydroxy-10,13-dimethyl-2,3,4,7,8,9,10,11,12,13,14,15,16,17-tetradecahydro-1H-cyclopenta[a]phenanthren-17-yl)-6-methylheptane-2,3-diol, reference compound], the share remaining at 1 h in data set [7] (read-out: MLM, % Remaining after 60 min) is 5%; in data set [9] (read-out: HLM, % Remaining after 60 min), 6%. The half-life is 14 min in data set [7] (read-out: MLM, Half-Life) and under 15 min in data set [9] (human, liver microsomes, read-out: HLM, Half-Life). In addition, the TGFβ inhibitory properties result in data set [4] is given as “devoid of TGFβ inhibitory properties”. Moreover, the Smo binding affinity result in data set [8] was “lack of detectable Smo binding affinity”.
